{
  "source": "paper PMC7226869",
  "about": "(ACS Omega, 2020)",
  "key": {"[1]": {"target": "T1, New Delhi metallo-β-lactamase-1 (NDM-1) (Klebsiella pneumoniae, UniProt E9NWK5)", "assay": "1H-15N HSQC NMR titration", "type": "binding"}, "[2]": {"target": "T1, New Delhi metallo-β-lactamase-1 (NDM-1)", "assay": "imipenem hydrolysis by purified NDM-1", "type": "biochemical"}, "[3]": {"target": "OXA-48 (Klebsiella pneumoniae, UniProt Q6XEC0)", "sequence (Q6XEC0 23-265 limits assumed)": "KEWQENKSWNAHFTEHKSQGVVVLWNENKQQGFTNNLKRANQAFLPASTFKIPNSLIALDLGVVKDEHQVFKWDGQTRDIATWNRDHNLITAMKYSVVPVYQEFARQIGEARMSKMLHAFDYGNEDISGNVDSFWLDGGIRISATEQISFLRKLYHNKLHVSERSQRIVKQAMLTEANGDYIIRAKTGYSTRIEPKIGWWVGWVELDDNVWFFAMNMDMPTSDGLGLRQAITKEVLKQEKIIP", "assay": "carbapenemase inhibition at a single concentration", "type": "biochemical", "conditions": "read-out: % inhibition at 50 μM"}, "[4]": {"target": "KPC-2 (Klebsiella pneumoniae, UniProt Q93LQ9)", "assay": "carbapenemase inhibition at a single concentration", "type": "biochemical", "conditions": "read-out: % inhibition at 50 μM"}, "[5]": {"target": "T1, New Delhi metallo-β-lactamase-1 (NDM-1)", "assay": "imipenem hydrolysis by purified NDM-1", "type": "biochemical", "remark": "listed apart in the source"}},
  "note": "Read-outs that look alike come from different tables or passages of the source.",
  "data": [
    {"smiles": "O=c1c(O)c(-c2ccc(O)cc2O)oc2cc(O)cc(O)c12", "note": "[morin]", "values": [
      {"measurement": "Kd", "setting": "[1]", "value": "~300", "unit": "µM"}
    ]},
    {"smiles": "O=c1c(O)c(-c2ccc(O)c(O)c2)oc2cc(O)cc(O)c12", "note": "[quercetin]", "values": [
      {"measurement": "IC50", "setting": "[2]", "value": "5 to 10", "unit": "µM"}
    ]},
    {"smiles": "O=c1c(O)c(-c2cc(O)c(O)c(O)c2)oc2cc(O)cc(O)c12", "note": "[myricetin]", "values": [
      {"measurement": "inhibition at 50 µM", "setting": "[3]", "value": 90, "unit": "%"},
      {"measurement": "inhibition at 50 µM", "setting": "[4]", "value": 78, "unit": "%"},
      {"measurement": "IC50", "setting": "[5]", "value": 3.3, "unit": "µM"}
    ]}
  ]
}
